Measurements reported in patent US7566712B2, “Biaryl piperazinyl-pyridine analogues” (Neurogen Corporation, priority 2003, dated 2009).

These molecules were tested against T1, human capsaicin receptor (Homo sapiens, UniProt Q8NER1) (assay: Calcium mobilization assay, determination of antagonist activity (Example 6)). Details: Table II; IC50 determined as described in Example 6.
T1 construct: pBK-CMV expression construct encoding the full length human capsaicin receptor; expressed in transfected cells
T1 sequence (Q8NER1 whole entry): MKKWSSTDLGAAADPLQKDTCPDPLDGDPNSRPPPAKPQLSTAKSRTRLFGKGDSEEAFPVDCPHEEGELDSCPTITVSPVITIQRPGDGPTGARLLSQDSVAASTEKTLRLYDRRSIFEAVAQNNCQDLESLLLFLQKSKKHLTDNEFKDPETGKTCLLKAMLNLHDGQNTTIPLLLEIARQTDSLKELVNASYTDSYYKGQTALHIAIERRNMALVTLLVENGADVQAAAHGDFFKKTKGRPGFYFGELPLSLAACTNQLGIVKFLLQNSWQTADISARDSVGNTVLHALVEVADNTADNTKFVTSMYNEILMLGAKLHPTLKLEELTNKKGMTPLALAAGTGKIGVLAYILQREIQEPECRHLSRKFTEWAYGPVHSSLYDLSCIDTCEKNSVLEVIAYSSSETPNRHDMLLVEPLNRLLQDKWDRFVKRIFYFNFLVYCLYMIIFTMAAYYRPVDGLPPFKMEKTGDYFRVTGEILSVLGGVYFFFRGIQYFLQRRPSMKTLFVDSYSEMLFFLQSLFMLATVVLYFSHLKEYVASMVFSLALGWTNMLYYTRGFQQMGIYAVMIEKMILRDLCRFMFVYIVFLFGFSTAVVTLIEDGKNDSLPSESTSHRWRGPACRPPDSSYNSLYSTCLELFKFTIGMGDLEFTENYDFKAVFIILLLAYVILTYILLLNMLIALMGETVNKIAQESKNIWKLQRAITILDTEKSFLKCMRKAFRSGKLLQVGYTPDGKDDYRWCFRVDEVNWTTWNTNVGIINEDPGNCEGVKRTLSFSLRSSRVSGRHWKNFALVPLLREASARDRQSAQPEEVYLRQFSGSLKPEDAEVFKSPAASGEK
Assay type: cell-based
Description: A cDNA encoding full length human capsaicin receptor (SEQ ID NO: 1, 2 or 3 of U.S. Pat. No. 6,482,611) was subcloned in the plasmid pBK-CMV (Stratagene, La Jolla, Calif.) for recombinant expression in mammalian cells.
Human embryonic kidney (HEK293) cells were transfected with the pBK-CMV expression construct encoding the full length human capsaicin receptor using standard methods. The transfected cells were selected for two weeks in media containing G418 (400 μg/ml) to obtain a pool of stably transfected cells. Independent clones were isolated from this pool by limiting dilution to obtain clonal stable cell lines for use in subsequent experiments.
This Example illustrates representative calcium mobilization assays for use in evaluating test compounds for agonist and antagonist activity.
Cells transfected with expression plasmids (as described in Example 4) and thereby expressing human capsaicin receptor are seeded and grown to 70-90% confluency in FALCON black-walled, clear-bottomed 96-well plates (#3904, BECTON-DICKINSON, Franklin Lakes, N.J.). The culture medium is emptied from the 96 well plates and FLUO-3 AM calcium sensitive dye (Molecular Probes, Eugene, Oreg.) is added to each well (dye solution: 1 mg FLUO-3 AM, 440 μL DMSO and 440 pi 20% pluronic acid in DMSO, diluted 1:250 in Krebs-Ringer HEPES (KRH) buffer (25 mM HEPES, 5 mM KCl, 0.96 mM NaH2PO4, 1 mM MgSO4, 2 mM CaCl2, 5 mM glucose, 1 mM probenecid, pH 7.4), 50 μl diluted solution per well). Plates are covered with aluminum foil and incubated at 37° C. for 1-2 hours in an environment containing 5% CO2. After the incubation, the dye is emptied from the plates, and the cells are washed once with KRH buffer, and resuspended in KRH buffer.
To measure the ability of a test compound to agonize or antagonize a calcium mobilization response in cells expressing capsaicin receptors to capsaicin or other vanilloid agonist, the EC50 of the agonist capsaicin is first determined. An additional 20 μl of KRH buffer and 1 μl DMSO is added to each well of cells, prepared as described above. 100 μl capsaicin in KRH buffer is automatically transferred by the FLIPR instrument to each well. Capsaicin-induced calcium mobilization is monitored using either FLUOROSKAN ASCENT (Labsystems; Franklin, Mass.) or FLIPR (fluorometric imaging plate reader system; Molecular Devices, Sunnyvale, Calif.) instruments. Data obtained between 30 and 60 seconds after agonist application are used to generate an 8-point concentration response curve, with final capsaicin concentrations of 1 nM to 3 μM. KALEIDAGRAPH software (Synergy Software, Reading, Pa.) is used to fit the data to the equation: y=a*(1/(1+(b/x)^c)) to determine the 50% excitatory concentration (EC50) for the response. In this equation, y is the maximum fluorescence signal, x is the concentration of the agonist or antagonist (in this case, capsaicin), a is the Emax, b corresponds to the EC50 value and c is the Hill coefficient. Determination of Agonist Activity
Test compounds are dissolved in DMSO, diluted in 20 μl KRH buffer so that the final concentration of test compounds in the assay well is between 1 μM and 5 μM, and added to cells prepared as described above. The 96 well plates containing prepared cells and test compounds are incubated in the dark, at room temperature for 0.5 to 6 hours. It is important that the incubation not continue beyond 6 hours. Just prior to determining the fluorescence response, 100 pi capsaicin in KRH buffer at twice the EC50 concentration determined as described above is automatically added by the FLIPR instrument to each well of the 96 well plate for a final sample volume of 200 μl and a final capsaicin concentration equal to the EC50. The final concentration of test compounds in the assay wells is between 1 μM and 5 μM. […]

IC50 [nM] | Structure (SMILES)
≤ 1000 | Fc1ccc(-c2nc(N3CCOCC3)nc(N3CCN(c4ncccc4C(F)(F)F)CC3)n2)cc1Cl [Example 426, 2-(3-chioro-4-fluorophenyl)-4-morpholin-4-yl-6-{4-[3-(trifluoromethyl)pyridin-2-yl]piperazin-1-yl}-1,3,5-triazine]
≤ 1000 | Fc1ccc(-c2nc(N3CCOCC3)nc(N3CCN(c4ncccc4C(F)(F)F)CC3)n2)cc1F [Example 428, 2-(3,4-difluorophenyl)-4-morpholin-4-yl-6-{4-[3-(trifluoromethyl)pyridin-2-yl]piperazin-1-yl}-1,3,5-triazine]
≤ 1000 | N#Cc1cccc(-c2nc(N3CCOCC3)nc(N3CCN(c4ncccc4C(F)(F)F)CC3)n2)c1 [Example 435, 3-(4-morpholin-4-yl-6-{4-[3-(trifluoromethyl)pyridin-2-yl]piperazin-1-yl}-1,3,5-triazin-2-yl)benzonitrile]
≤ 1000 | N#Cc1ccc(-c2nc(N3CCOCC3)nc(N3CCN(c4ncccc4C(F)(F)F)CC3)n2)cc1 [Example 436, 4-(4-morpholin-4-yl-6-{4-[3-(trifluoromethyl)pyridin-2-yl]piperazin-1-yl}-1,3,5-triazin-2-yl)benzonitrile]
≤ 1000 | FC(F)(F)c1ccc(-c2nc(N3CCOCC3)nc(N3CCN(c4ncccc4C(F)(F)F)CC3)n2)cc1 [Example 437, 2-morpholin-4-yl-4-[4-(trifluoromethyl)phenyl]-6-{4-[3-(trifluoromethyl)pyridin-2-yl]piperazin-1-yl}-1,3,5-triazine]
≤ 1000 | FC(F)(F)c1cccc(-c2nc(N3CCOCC3)nc(N3CCN(c4ncccc4C(F)(F)F)CC3)n2)c1 [Example 438, 2-morpholin-4-yl-4-[3-(trifluoromethyl)phenyl]-6-{4-[3-(trifluoromethyl)pyridin-2-yl]piperazin-1-yl}-1,3,5-triazine]
≤ 1000 | C=CCN1CCN(c2nc(-c3ccccc3)nc(N3CCN(c4ncccc4C(F)(F)F)CC3)n2)CC1 [Example 440, 2-(4-allylpiperazin-1-yl)-4-phenyl-6-{4-[3-(trifluoromethyl)pyridin-2-yl]piperazin-1-yl}-1,3,5-triazine]

The next lines start with the molecule.

Structure (SMILES) | IC50 [nM]
Fc1ccc(F)c(-c2nc(N3CCOCC3)nc(N3CCN(c4ccccn4)CC3)n2)c1 [Example 422, 2-(2,5-difluorophenyl)-4-morpholin-4-yl-6-(4-pyridin-2-ylpiperazin-1-yl)-1,3,5-triazine] | ≤ 1000
Fc1ccc(-c2nc(N3CCOCC3)nc(N3CCN(c4ccccn4)CC3)n2)c(F)c1 [Example 423, 2-(2,4-difluorophenyl)-4-morpholin-4-yl-6-(4-pyridin-2-ylpiperazin-1-yl)-1,3,5-triazine] | ≤ 1000
Fc1ccc(-c2nc(N3CCOCC3)nc(N3CCN(c4ccccn4)CC3)n2)cc1F [Example 424, 2-(3,4-difluorophenyl)-4-morpholin-4-yl-6-(4-pyridin-2-ylpiperazin-1-yl)-1,3,5-triazine] | ≤ 1000
Fc1ccc(-c2nc(N3CCOCC3)nc(N3CCN(c4ncccc4Cl)CC3)n2)cc1Cl [Example 427, 2-(3-chloro-4-fluorophenyl)-4-[4-(3-chloropyridin-2-yl)piperazin-1-yl]-6-morpholin-4-yl-1,3,5-triazine] | ≤ 1000
COc1ccc(C(C)C)cc1-c1nc(N2CCOCC2)nc(N2CCN(c3ccccn3)CC2)n1 [Example 430, 2-(5-isopropyl-2-methoxyphenyl)-4-morpholin-4-yl-6-(4-pyridin-2-ylpiperazin-1-yl)-1,3,5-triazine] | ≤ 1000
COc1ccc(Cl)cc1-c1nc(N2CCOCC2)nc(N2CCN(c3ccccn3)CC2)n1 [Example 431, 2-(5-chloro-2-methoxyphenyl)-4-morpholin-4-yl-6-(4-pyridin-2-ylpiperazin-1-yl)-1,3,5-triazine] | ≤ 1000
c1ccc(N2CCN(c3nc(-c4cccc5c4oc4ccccc45)nc(N4CCOCC4)n3)CC2)nc1 [Example 432, 2-dibenzo[b,d]furan-4-yl-4-morpholin-4-yl-6-(4-pyridin-2-ylpiperazin-1-yl)-1,3,5-triazine] | ≤ 1000
CCOC(=O)c1cccc(-c2nc(N3CCOCC3)nc(N3CCN(c4ccccn4)CC3)n2)c1 [Example 434, ethyl 3-[4-morpholin-4-yl-6-(4-pyridin-2-ylpiperazin-1-yl)-1,3,5-triazin-2-yl]benzoate] | ≤ 1000

Same assay, conditions: Table II; determined as described in Example 6; class symbol

IC50 [nM] | Structure (SMILES)
≤ 1000 | Cc1cccc(-c2nc(N3CCCCCC3)nc(N3CCN(c4ncccc4C(F)(F)F)CC3)n2)c1 [Example 262, 1-(4-(3-methylphenyl)-6-{4-[3-(trifluoromethyl)pyridin-2-yl]piperazin-1-yl}-1,3,5-triazin-2-yl)azepane]
≤ 1000 | Cc1cccc(-c2nc(N3CCN(c4ncccc4C(F)(F)F)CC3)nc(N3CC(C)OC(C)C3)n2)c1 (stereo not drawn) [Example 263, 2-(2,6-dimethylmorpholin-4-yl)-4-(3-methylphenyl)-6-{4-[3-(trifluoromethyl)pyridin-2-yl]piperazin-1-yl}-1,3,5-triazine]
≤ 1000 | Fc1ccc(-c2nc(N3CCCCCC3)nc(N3CCN(c4ncccc4C(F)(F)F)CC3)n2)cc1Cl [Example 265, 1-(4-(3-chloro-4-fluorophenyi)-6-{4-[3-(trifluoromethyl)pyridin-2-yl]piperazin-1-yl}-1,3,5-triazin-2-yl)azepane]
≤ 1000 | CC1CN(c2nc(-c3ccc(F)c(Cl)c3)nc(N3CCN(c4ncccc4C(F)(F)F)CC3)n2)CC(C)O1 (stereo not drawn) [Example 266, 2-(3-chloro-4-fluorophenyl)-4-(2,6-dimethylmorpholin-4-yl)-6-{4-[3-(trifluoromethyl)pyridin-2-yl]piperazin-1-yl}-1,3,5-triazine]

More lines, now with the values behind:

Structure (SMILES) | IC50 [nM]
Cc1ccccc1-c1nc(N2CCOCC2)nc(N2CCN(c3ccccn3)CC2)n1 [Example 268, 2-(2-methylphenyl)-4-morpholin-4-yl-6-(4-pyridin-2-ylpiperazin-1-yl)-1,3,5-triazine] | ≤ 1000
Cc1ccc(C)c(-c2nc(N3CCOCC3)nc(N3CCN(c4ccccn4)CC3)n2)c1 [Example 269, 2-(2,5-dimethylphenyl)-4-morpholin-4-yl-6-(4-pyridin-2-ylpiperazin-1-yl)-1,3,5-triazine] | ≤ 1000
c1ccc(N2CCN(c3nc(-c4cccc5ccccc45)nc(N4CCOCC4)n3)CC2)nc1 [Example 270, 2-morpholin-4-yl-4-(1-naphthyl)-6-(4-pyridin-2-ylpiperazin-1-yl)-1,3,5-triazine] | ≤ 1000
Cc1cccc(-c2nc(N3CCOCC3)nc(N3CCN(c4ccccn4)CC3)n2)c1C [Example 271, 2-(2,3-dimethylphenyl)-4-morpholin-4-yl-6-(4-pyridin-2-ylpiperazin-1-yl)-1,3,5-triazine] | ≤ 1000
Cc1ccc(F)cc1-c1nc(N2CCOCC2)nc(N2CCN(c3ccccn3)CC2)n1 [Example 272, 2-(5-fluoro-2-methylphenyl)-4-morpholin-4-yl-6-(4-pyridin-2-ylpiperazin-1-yl)-1,3,5-triazine] | ≤ 1000
Cc1cc(F)ccc1-c1nc(N2CCOCC2)nc(N2CCN(c3ccccn3)CC2)n1 [Example 273, 2-(4-fluoro-2-methylphenyl)-4-morpholin-4-yl-6-(4-pyridin-2-ylpiperazin-1-yl)-1,3,5-triazine] | ≤ 1000
CCc1ccccc1-c1nc(N2CCOCC2)nc(N2CCN(c3ccccn3)CC2)n1 [Example 274, 2-(2-ethylphenyl)-4-morpholin-4-yl-6-(4-pyridin-2-ylpiperazin-1-yl)-1,3,5-triazine] | ≤ 1000
Cc1ccc(-c2nc(N3CCOCC3)nc(N3CCN(c4ccccn4)CC3)n2)c2ccccc12 [Example 276, 2-(4-methyl-1-naphthyl)-4-morpholin-4-yl-6-(4-pyridin-2-ylpiperazin-1-yl)-1,3,5-triazine] | ≤ 1000
